The target in assay [1] is T1, NET (Homo sapiens, UniProt P23975). The experiment in a line: hNET radioligand binding assay (3H-nisoxetine). Also noted: expressed in transfected cells; host or cells: HEK-293. The settings on record: hNET membranes (HEK-293), 1.0 nM 3H-nisoxetine; for Ki: read-out: NET pKi (converted). A digest of the protocol:
(§1)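 Membranes came from HEK-293 cells stably expressing hSERT (0.5 μg protein) or hNET (1 μg), with 3H-citalopram or 3H-nisoxetine respectively. Incubation was 60 min at 22° C in Tris buffer with 120 mM NaCl and 5 mM KCl, pH 7.4, followed by filtration and scintillation counting. pKi was derived by Cheng-Prusoff from IC50 and saturation-derived Kd.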

For assay [2], the target named is T2, SERT (Homo sapiens, UniProt P31645). As to the kind of experiment: hSERT radioligand binding assay (3H-citalopram). The arrangement: expressed in transfected cells; host or cells: HEK-293. The following applies: hSERT membranes (HEK-293), 1.0 nM 3H-citalopram; for Ki: read-out: SERT pKi (converted). The method, boiled down:
as §1
Target sequence in this assay (P31645 whole entry): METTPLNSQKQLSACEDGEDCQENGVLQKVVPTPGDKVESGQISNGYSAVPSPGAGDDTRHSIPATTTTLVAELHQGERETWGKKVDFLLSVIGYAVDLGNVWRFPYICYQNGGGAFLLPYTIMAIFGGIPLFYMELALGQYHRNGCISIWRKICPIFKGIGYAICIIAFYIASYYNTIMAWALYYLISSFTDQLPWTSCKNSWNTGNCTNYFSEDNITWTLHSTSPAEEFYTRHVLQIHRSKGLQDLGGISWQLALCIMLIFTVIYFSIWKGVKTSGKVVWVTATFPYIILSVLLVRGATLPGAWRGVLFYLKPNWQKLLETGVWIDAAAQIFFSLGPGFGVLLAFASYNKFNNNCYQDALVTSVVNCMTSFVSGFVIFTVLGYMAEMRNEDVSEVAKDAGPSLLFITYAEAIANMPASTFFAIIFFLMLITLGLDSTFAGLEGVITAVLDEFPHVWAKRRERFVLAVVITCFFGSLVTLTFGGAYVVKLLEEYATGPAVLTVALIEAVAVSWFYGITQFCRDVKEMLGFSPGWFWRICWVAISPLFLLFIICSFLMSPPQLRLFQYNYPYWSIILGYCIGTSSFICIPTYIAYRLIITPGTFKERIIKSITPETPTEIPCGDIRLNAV

The target in assay [3] is T1, NET. The settings on record: cited from earlier work.
In assay [4] the target is T2, SERT. The settings on record: cited from earlier work.
Target sequence in this assay (P31645 whole entry, species assumed): as the sequence (P31645 whole entry) above

Bounds are passed on as bounds.

For orientation: pKi means the Ki on a negative log10 scale, so that one unit is a factor of ten.

T1 sequence (P23975 whole entry): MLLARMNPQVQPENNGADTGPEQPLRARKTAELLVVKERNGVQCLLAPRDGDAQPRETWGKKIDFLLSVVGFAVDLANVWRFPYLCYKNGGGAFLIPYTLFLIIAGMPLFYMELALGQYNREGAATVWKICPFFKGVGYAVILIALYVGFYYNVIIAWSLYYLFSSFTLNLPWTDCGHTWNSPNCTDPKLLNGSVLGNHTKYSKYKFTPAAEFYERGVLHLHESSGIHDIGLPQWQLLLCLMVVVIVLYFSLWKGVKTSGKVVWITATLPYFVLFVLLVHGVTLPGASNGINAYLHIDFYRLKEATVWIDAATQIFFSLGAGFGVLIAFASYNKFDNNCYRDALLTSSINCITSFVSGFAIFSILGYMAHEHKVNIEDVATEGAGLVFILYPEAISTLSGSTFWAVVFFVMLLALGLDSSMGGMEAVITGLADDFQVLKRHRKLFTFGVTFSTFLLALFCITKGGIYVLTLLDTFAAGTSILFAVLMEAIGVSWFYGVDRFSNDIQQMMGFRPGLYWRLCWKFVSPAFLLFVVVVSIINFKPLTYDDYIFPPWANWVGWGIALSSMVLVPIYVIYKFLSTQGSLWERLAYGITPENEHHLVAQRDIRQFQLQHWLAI

Take `Cc1ccc(Cl)c(O[C@H](c2ccncc2)[C@H]2CCNC2)c1Cl` [Example 3-7, 4-[(S)-(2,6-Dichloro-3-methylphenoxy)-(S)-pyrrolidin-3-yl-methyl]pyridine]: the Ki on NET [1] and at SERT [2] was at most 100 nM throughout.

Consider `Fc1ccc(OC(c2nccs2)C2CCNC2)c(F)c1F` [Example 5-1, 2-[(R)-((S)-Pyrrolidin-3-yl-(2,3,4-trifluorophenoxy)methyl]thiazole], for which the Ki was at most 10000 nM at NET [1] and at most 100 nM at SERT [2].

Consider `Fc1ccc(OC(c2nccs2)C2CCNC2)c(F)c1F` [Example 5-2, 2-[((S)-((S)-Pyrrolidin-3-yl-(2,3,4-trifluorophenoxy)methyl]thiazole], for which the Ki on NET [1] is at most 100 nM. Besides, at SERT [2], the “SERT pKi” value is reported as “≧7.0”.

For `Fc1cc(F)c(F)c(O[C@@H](c2nccs2)[C@H]2CCNC2)c1F` [Example 5-3], at NET [1], the “NET pKi” value is given as “≧5.0”. Moreover, at SERT [2], the “SERT pKi” value is recorded as “≧5.0”.

Regarding `Fc1cc(F)c(F)c(OC(c2nccs2)C2CCNC2)c1F` [Example 5-4, 2-[((S)-((S)-Pyrrolidin-3-yl-(2,3,5,6-tetrafluorophenoxy)methyl]thiazole], the Ki at NET [1] was at most 100 nM; on SERT [2], at most 10000 nM.

For `Fc1cc(F)c(OC(c2nccs2)C2CCNC2)c(F)c1` [Example 5-6, 2-[(R)-((S)-Pyrrolidin-3-yl-(2,4,6-trifluorophenoxy)methyl]thiazole], the Ki at NET [1] and on SERT [2] was at most 10000 nM each time.

`Fc1cc(F)c(OC(c2nccs2)C2CCNC2)c(F)c1` [Example 5-7, 2-[((S)-((S)-Pyrrolidin-3-yl-(2,4,6-trifluorophenoxy)methyl]thiazole]: the Ki at NET [1] and at SERT [2] was at most 100 nM throughout.

Turning to `Fc1cc(F)c(Cl)c(O[C@@H](c2nccs2)[C@H]2CCNC2)c1Cl` [Example 5-8], at NET [1], the “NET pKi” value was “≧5.0”. On SERT [2], the “SERT pKi” value was “≧5.0”.

On to `Fc1cc(F)c(Cl)c(OC(c2nccs2)C2CCNC2)c1Cl` [Example 5-9, 2-[((S)-(2,6-Dichloro-3,5-difluorophenoxy)-((S)-pyrrolidin-3-yl-methyl]thiazole], for which the Ki on NET [1] and on SERT [2] was at most 100 nM throughout.

On to `Fc1cc(Cl)c(OC(c2nccs2)C2CCNC2)c(Cl)c1` [Example 5-10, 2-[(R)-(2,6-Dichloro-4-fluorophenoxy)-((S)-pyrrolidin-3-yl-methyl]thiazole], for which the Ki on NET [1] and on SERT [2] was at most 10000 nM each time.

Turning to `Fc1cc(Cl)c(OC(c2nccs2)C2CCNC2)c(Cl)c1` [Example 5-11, 2-[((S)-(2,6-Dichloro-4-fluorophenoxy)-((S)-pyrrolidin-3-yl-methyl]thiazole], the “NET pKi” value on NET [1] is on record as “≧5.0”. In addition, the Ki at SERT [2] was at most 100 nM.

On to `Cc1cc(Cl)c(OC(c2nccs2)C2CCNC2)c(Cl)c1` [Example 5-13, 2-[(R)-(2,6-Dichloro-4-methylphenoxy)-((S)-pyrrolidin-3-yl-methyl]thiazole], for which the Ki at NET [1] and on SERT [2] was at most 10000 nM throughout.

Consider `Cc1cc(Cl)c(O[C@H](c2nccs2)[C@H]2CCNC2)c(Cl)c1` [Example 5-14], for which, at NET [1], the “NET pKi” value was “≧5.0”. In addition, the “SERT pKi” value on SERT [2] is “≧7.0”.

Consider `Fc1ccc(F)c(O[C@@H](c2nccs2)[C@H]2CCNC2)c1Cl` [Example 5-15], for which the “NET pKi” value on NET [1] was “≧5.0”. Further, the “SERT pKi” value on SERT [2] was “≧7.0”.

Regarding `Fc1ccc(F)c(OC(c2nccs2)C2CCNC2)c1Cl` [Example 5-16, 2-[((S)-(2-Chloro-3,6-difluorophenoxy)-((S)-pyrrolidin-3-yl-methyl]thiazole], the Ki at NET [1] and on SERT [2] was at most 100 nM throughout.

For the compound `Cc1ccc(F)c(O[C@H](c2nccs2)C2CCNC2)c1Cl` (stereo partly shown) [Example 5-17], at NET [1], the “NET pKi” value was “≧7.0”. Further, the “SERT pKi” value on SERT [2] was “≧7.0”.

As to `Cc1ccc(F)c(OC(c2nccs2)C2CCNC2)c1Cl` [Example 5-18, 2-[(R)-(2-Chloro-6-fluoro-3-methylphenoxy)-((S)-pyrrolidin-3-yl-methyl]thiazole], the Ki on NET [1] and on SERT [2] was at most 100 nM throughout.

Consider `Fc1ccc(O[C@H](c2nccs2)[C@H]2CCNC2)c(Cl)c1` [Example 5-19, 2-[(S)-(2-Chloro-4-fluorophenoxy)-(S)-pyrrolidin-3-ylmethyl]thiazole], for which the Ki was at most 10000 nM at NET [1] and at most 100 nM at SERT [2].

Regarding `Fc1ccc(OC(c2nccs2)[C@H]2CCNC2)c(Cl)c1` (stereo partly drawn) [Example 5-20, 2-[(S)-(2-Chloro-4-fluorophenoxy)-pyrrolidin-3-yl-methyl]thiazole], the Ki at NET [1] and on SERT [2] was at most 100 nM throughout.

Consider `Cc1cc(Cl)ccc1O[C@@H](c1nccs1)[C@H]1CCNC1` [Example 5-22], for which the “NET pKi” value on NET [1] was “≧7.0”. Further, the “SERT pKi” value at SERT [2] is reported as “≧7.0”.

In the case of `Cc1ccc(F)c(O[C@H](c2nccs2)[C@H]2CCNC2)c1Cl` [Example 5-23], the “NET pKi” value at NET [1] is “≧7.0”. Moreover, the “SERT pKi” value on SERT [2] was “≧7.0”.

For `Cc1ccccc1O[C@@H](c1nccs1)[C@H]1CCNC1` [Example 5-24], the “NET pKi” value at NET [1] is “≧5.0”. Also, the “SERT pKi” value on SERT [2] is “≧7.0”.

`Cc1ccccc1O[C@H](c1nccs1)[C@H]1CCNC1` [Example 5-25]: the “NET pKi” value on NET [1] is reported as “≧7.0”. Also, the “SERT pKi” value at SERT [2] was “≧7.0”.

Consider `Clc1cc(Cl)cc(OC(c2nccs2)C2CCNC2)c1` [Example 5-26, 2-[(R)-(3,5-Dichlorophenoxy)-((S)-pyrrolidin-3-yl-methyl]thiazole], for which the Ki at NET [1] and at SERT [2] was at most 100 nM in each case.

Regarding `Clc1cc(Cl)cc(O[C@H](c2nccs2)[C@H]2CCNC2)c1` [Example 5-27], the “NET pKi” value at NET [1] was “≧7.0”. Also, at SERT [2], the “SERT pKi” value is listed as “≧7.0”.

As to `COc1cc(F)c(O[C@@H](c2nccs2)[C@H]2CCNC2)c(F)c1` [Example 5-28], the “NET pKi” value on NET [1] is reported as “≧5.0”. Further, the “SERT pKi” value at SERT [2] was “≧7.0”.

With `COc1cc(F)c(O[C@H](c2nccs2)C2CCNC2)c(F)c1` (stereo partly shown) [Example 5-29], on NET [1], the “NET pKi” value is given as “≧5.0”. In addition, at SERT [2], the “SERT pKi” value was “≧7.0”.

Take `Fc1ccc(O[C@@H](c2nccs2)[C@H]2CCNC2)cc1Cl` [Example 5-30]: at NET [1], the “NET pKi” value was “≧5.0”. The “SERT pKi” value at SERT [2] is recorded as “≧7.0”.

For `Fc1ccc(O[C@H](c2nccs2)[C@H]2CCNC2)cc1Cl` [Example 5-31], the “NET pKi” value at NET [1] is on record as “≧7.0”. Besides, the “SERT pKi” value on SERT [2] is on record as “≧7.0”.

On to `Fc1cc(Cl)ccc1OC(c1nccs1)C1CCNC1` [Example 5-32, 2-[(R)-(4-Chloro-2-fluorophenoxy)-((S)-pyrrolidin-3-yl-methyl]thiazole], for which the Ki at NET [1] was at most 10000 nM; at SERT [2], at most 100 nM.

As for `Fc1cc(Cl)ccc1O[C@H](c1nccs1)[C@H]1CCNC1` [Example 5-33], the “NET pKi” value at NET [1] is reported as “≧7.0”. Moreover, at SERT [2], the “SERT pKi” value is recorded as “≧7.0”.

Turning to `Fc1ccc(F)c(O[C@@H](c2ccco2)[C@H]2CCNC2)c1Cl` [Example 8-1, (S)-3-[(R)-(2-Chloro-3,6-difluorophenoxy)furan-2-yl-methyl]pyrrolidine], the Ki at NET [1] and at SERT [2] was at most 10000 nM in each case.

For `Cc1cc(Cl)ccc1O[C@@H](c1ccco1)[C@H]1CCNC1` [Example 8-2, (S)-3-[(R)-(4-Chloro-2-methylphenoxy)furan-2-yl-methyl]pyrrolidine], the Ki at NET [1] and on SERT [2] was at most 10000 nM throughout.

As to `Clc1cc(Cl)cc(O[C@@H](c2ccco2)[C@H]2CCNC2)c1` [Example 8-3, (S)-3-[(R)-(3,5-Dichlorophenoxy)furan-2-yl-methyl]pyrrolidine], the Ki on NET [1] and on SERT [2] was at most 100 nM in each case.

For `Clc1cc(Cl)cc(O[C@H](c2ccco2)[C@H]2CCNC2)c1` [Example 8-4, (S)-3-[(S)-(3,5-Dichlorophenoxy)furan-2-yl-methyl]pyrrolidine], the Ki at NET [1] and at SERT [2] was at most 100 nM throughout.

Regarding `Clc1cc(Cl)cc(OC(c2ccoc2)C2CCNC2)c1` [Example 9-1, (S)-3-[(R)-(3,5-Dichlorophenoxy)-furan-3-yl-methyl]pyrrolidione], the Ki on NET [1] and on SERT [2] was at most 100 nM throughout.

For the compound `Cc1cc(Cl)cnc1O[C@@H](c1ccccc1)[C@H]1CCNC1` [Example 13], the Ki at NET [1] and on SERT [2] was at most 100 nM each time.

`Cc1cc(Cl)cnc1O[C@@H](c1cncc(F)c1)[C@H]1CCNC1` [Example 17]: the Ki at NET [1] and on SERT [2] was at most 100 nM in each case.

On to `Cc1ccc(C23CNCC2C3)cc1` (stereo not shown) [bicifadine], for which the “pKi at NET” value at NET [3] was 6.7. At SERT [4], the “pKi at SERT” value was 7.0.

On to `CCN(CC)C(=O)C1(c2ccccc2)CC1CN` (stereo not shown) [milnacipran], for which the “selectivity (measured as pKi) for SERT over NET” value on SERT [4] is on record as 2.5 fold.
